Measured values from patent US20150238601A1, “TREATMENT OF OCULAR DISORDERS” (KADMON CORPORATION, LLC, priority 2012, published 2015).
pIC50, pKi: −log10 of the molar value. Where a name gives a salt, the structure may show the parent alone. Read-outs that look alike come from different tables or passages of the source. Each block holds one compound with its values, some of them ahead of it.

How the values were obtained:
[1] = molecular target: T1, ROCK1 (Homo sapiens, UniProt Q13464); experiment: biochemical
Procedure: Dose response curves for Rho-kinase inhibition were derived from a Millipore immuno-based 96 well plate assay (Millipore catalog number CSA001). Purified active ROCK1 and ROCK2 were obtained from Invitrogen (catalog numbers ROCKI, PV3691 and ROCK2, PV3759). The kit components include assay plates, which are pre-coated with recombinant MYPT1, which contains a specifically phosphorylatable Thr696. The inhibitory activities of compounds are measured according to the manufactures protocol. […] The assay proceeds at 300 Celsius for 30 minutes with gentle shaking at 120 rpm. The assay is terminated by washing of the plate 3 times with Tris-buffered saline and tween wash buffer. Anti-phospho-MYPT1 (Thr696) antibody is added to each well to detect the phosphorylated substrate and incubated for 1 hour at room temperature after which HRP conjugated anti-rabbit IgG secondary is added for 1 hour at room temperature. After washing the assay is developed using a substrate reagent and the absorbance is read at 450 nm on a Tecan Infinite M1000 reflecting the relative remaining ROCK phosphorylation activity.

[2] = molecular target: T1, ROCK1; experiment: Invitrogen Z'-LYTE Kinase Assay; assay type: biochemical; set-up: purchased Invitrogen PV3691; conditions: 5 uM ATP, ROCK1 0.18 ug/mL
Text: (§2) Dose response curves for Rho-kinase inhibition were derived from a Invitrogen Z′-LYTE™ Kinase Assay Kit (Invitrogen catalog number PV3793). Purified active ROCK1 and ROCK2 were obtained from Invitrogen (catalog numbers ROCK1, PV3691 and ROCK2, PV3759). The kit components include a coumarin and fluorescein labeled peptide based on myosin light chain 2 ([sequence]), a proprietary protease containing development reagent and a proprietary Stop buffer used to terminate the development reaction. The inhibitory activities of compounds are measured according to the manufactures protocol. […] The assay proceeds at room temperature for 1 hour followed by the addition of development reagent, and further incubation for 1 hour at room temperature. […] By comparing the emission ratios of the test samples against control samples, percent phosphorylation values are calculated and the concentration of inhibitor that produces 1/2 inhibition of kinase activity (IC50) is determined using Prism.

[3] = molecular target: T2, ROCK2 (Homo sapiens, UniProt O75116); experiment: Invitrogen Z'-LYTE Kinase Assay; assay type: biochemical
T2 construct: purchased Invitrogen PV3759
Text: as §2

[4] = system: subfoveal choroidal neovascularization (CNV) lesion secondary to AMD; experiment: study in subjects with subfoveal CNV lesion secondary to AMD; assay type: in vivo, human; conditions: Example 43 with Mab 106 vs Mab 106, six months
Procedure: A study is conducted of 50 men and women having subfoveal choroidal neovascularization (CNV) lesion secondary to AMD. […] Subjects are observed over six months to determine intraocular inflammation, macular thickness, and the status of macular perfusion. Visual acuity is also measured over the time period.

[5] = system: proliferative diabetic retinopathy; experiment: preoperative treatment of proliferative diabetic retinopathy / diabetic macular edema; assay type: in vivo, human; conditions: with pegaptanib, compared to pegaptanib alone, intravitreal, 8 weeks after surgery
Procedure: The agents are administered by intravitreal injection. Subjects are evaluated over 8 weeks following surgery as to post operative rebleed, macular edema post injection, and pre- and post-injection levels of VEGF165. It is expected that compared to pegaptanib alone, administration of compound 154 results in reduced bleeding and macular edema.

[6] = system: STAT3 phosphorylation; experiment: STAT3 phosphorylation in T cells; assay type: cell-based
Procedure: STAT3 plays a critical role in Th17 differentiation via regulation of RORγt expression and direct binding to the IL-17 and IL-21 promoters. […] In a different experiment, cells we cultured under Th17-skewing conditions for 5 days and then treated with the ROCK2 selective inhibitor for 3 hours.

[7] = system: CD4+ T cells from peripheral blood of RA patients; experiment: CD4+ T cells of RA patients stimulated with anti-CD3/CD28 ex vivo; assay type: cell-based, human
[8] = system: CD4+ human T cells; experiment: cytokine secretion of anti-CD3/CD28 stimulated CD4+ T cells in vitro; assay type: cell-based; conditions: anti-CD3/CD28 stimulation
Text: (§1) Activation of resting T cells, resulting in cytokine secretion and proliferation, involves two distinct signals from antigen-presenting cells (APCs), mimicked by co-stimulation of the T cell receptor (TCR)/CD3 complex and the CD28 receptor.

[9] = system: CD4+ human T cells; experiment: T cell proliferation in response to TCR stimulation in vitro; assay type: cell-based
Text: as §1

[10] = Z'-LYTE, 12 uM ATP, ROCK2 0.8 ug/mL, read-out: ROCK2 IC50
[11] = 2 RA patients, intracellular staining
[12] = RA patients, ex vivo, TCR stimulation

T1 sequence (Q13464 whole entry): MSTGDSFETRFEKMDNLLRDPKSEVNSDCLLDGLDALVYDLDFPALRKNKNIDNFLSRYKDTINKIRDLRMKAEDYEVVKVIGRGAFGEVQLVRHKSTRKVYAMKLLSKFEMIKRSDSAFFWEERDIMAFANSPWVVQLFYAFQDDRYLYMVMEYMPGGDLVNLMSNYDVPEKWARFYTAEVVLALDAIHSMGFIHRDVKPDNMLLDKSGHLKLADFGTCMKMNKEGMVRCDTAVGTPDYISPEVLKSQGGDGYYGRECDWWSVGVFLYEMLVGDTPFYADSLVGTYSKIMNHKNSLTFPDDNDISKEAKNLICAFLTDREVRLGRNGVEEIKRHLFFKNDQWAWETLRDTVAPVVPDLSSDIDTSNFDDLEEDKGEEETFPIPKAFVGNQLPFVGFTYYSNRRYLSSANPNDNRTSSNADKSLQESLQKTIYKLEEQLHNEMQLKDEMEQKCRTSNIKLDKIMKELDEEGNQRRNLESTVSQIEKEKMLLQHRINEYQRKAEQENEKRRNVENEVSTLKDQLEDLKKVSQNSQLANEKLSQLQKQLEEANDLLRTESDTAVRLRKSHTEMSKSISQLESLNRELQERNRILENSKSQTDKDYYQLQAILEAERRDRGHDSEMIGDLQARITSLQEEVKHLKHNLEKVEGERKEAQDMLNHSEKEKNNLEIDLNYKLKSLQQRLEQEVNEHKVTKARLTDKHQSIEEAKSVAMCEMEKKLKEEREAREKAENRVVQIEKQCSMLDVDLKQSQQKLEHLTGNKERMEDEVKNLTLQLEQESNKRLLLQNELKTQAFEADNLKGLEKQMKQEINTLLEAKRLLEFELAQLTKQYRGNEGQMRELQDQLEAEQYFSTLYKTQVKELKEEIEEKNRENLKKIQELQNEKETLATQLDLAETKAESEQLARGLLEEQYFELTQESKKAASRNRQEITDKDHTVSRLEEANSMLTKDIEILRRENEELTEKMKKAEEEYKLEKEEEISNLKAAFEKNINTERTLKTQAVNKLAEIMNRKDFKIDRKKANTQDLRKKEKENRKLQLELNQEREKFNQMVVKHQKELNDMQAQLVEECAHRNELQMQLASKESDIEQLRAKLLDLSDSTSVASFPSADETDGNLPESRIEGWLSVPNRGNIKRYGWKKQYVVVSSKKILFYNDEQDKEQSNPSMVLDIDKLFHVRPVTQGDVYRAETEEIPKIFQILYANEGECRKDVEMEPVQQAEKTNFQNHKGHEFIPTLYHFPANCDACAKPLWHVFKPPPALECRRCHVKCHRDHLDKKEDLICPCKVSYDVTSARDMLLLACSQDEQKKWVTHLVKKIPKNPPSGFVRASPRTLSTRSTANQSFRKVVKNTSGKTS
T2 sequence (O75116 whole entry): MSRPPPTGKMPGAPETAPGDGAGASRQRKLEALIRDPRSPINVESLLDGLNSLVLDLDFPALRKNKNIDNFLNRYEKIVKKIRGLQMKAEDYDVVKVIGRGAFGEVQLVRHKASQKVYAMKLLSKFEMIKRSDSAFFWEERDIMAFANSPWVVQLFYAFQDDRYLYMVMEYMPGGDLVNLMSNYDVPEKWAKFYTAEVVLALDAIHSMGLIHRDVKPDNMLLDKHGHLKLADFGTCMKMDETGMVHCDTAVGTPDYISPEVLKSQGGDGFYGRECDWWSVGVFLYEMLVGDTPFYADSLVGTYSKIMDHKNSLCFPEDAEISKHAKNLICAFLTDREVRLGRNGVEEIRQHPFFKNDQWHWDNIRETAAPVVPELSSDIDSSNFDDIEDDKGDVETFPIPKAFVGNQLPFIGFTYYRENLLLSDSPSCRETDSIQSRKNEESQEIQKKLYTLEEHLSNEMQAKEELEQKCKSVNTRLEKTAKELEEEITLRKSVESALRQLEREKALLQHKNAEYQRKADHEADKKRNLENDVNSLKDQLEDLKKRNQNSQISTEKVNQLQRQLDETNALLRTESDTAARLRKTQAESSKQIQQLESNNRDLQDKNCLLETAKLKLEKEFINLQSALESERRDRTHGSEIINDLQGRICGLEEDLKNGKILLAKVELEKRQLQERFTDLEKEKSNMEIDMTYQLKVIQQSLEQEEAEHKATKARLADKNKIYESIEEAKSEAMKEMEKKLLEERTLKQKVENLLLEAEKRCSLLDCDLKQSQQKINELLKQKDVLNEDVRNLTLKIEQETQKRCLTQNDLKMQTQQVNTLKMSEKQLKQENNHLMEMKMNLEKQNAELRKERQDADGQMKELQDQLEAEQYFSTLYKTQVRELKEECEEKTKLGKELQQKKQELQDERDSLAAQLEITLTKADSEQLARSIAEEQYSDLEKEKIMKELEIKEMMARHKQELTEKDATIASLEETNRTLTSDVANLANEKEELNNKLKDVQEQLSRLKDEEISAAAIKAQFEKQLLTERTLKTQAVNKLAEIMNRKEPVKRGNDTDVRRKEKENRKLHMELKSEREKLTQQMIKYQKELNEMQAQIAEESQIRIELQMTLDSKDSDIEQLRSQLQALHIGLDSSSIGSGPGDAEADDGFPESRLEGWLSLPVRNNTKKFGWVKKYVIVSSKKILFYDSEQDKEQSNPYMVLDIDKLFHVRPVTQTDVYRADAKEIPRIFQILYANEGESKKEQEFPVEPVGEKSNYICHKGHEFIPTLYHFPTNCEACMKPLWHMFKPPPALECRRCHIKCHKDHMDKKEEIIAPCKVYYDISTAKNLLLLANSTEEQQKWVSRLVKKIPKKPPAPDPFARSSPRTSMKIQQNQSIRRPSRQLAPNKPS

pIC50 [1]: 5.75
pKi [1]: 7.15
Structure (SMILES): O=C(COc1cccc(-c2nccc(Nc3ccc4[nH]ncc4c3)n2)c1)N[C@@H]1CCNC1 [Example 12, (R)-2-(3-(4-((1H-indazol-5-yl)amino)pyrimidin-2-yl)phenoxy)-N-(pyrrolidin-3-yl)acetamide HCl salt]

Structure (SMILES): CC(C)NC(=O)COc1cccc(-c2ncc(OCCN(C)C)c(Nc3ccc4[nH]ncc4c3)n2)c1 [Example 43, 2-(3-(4-((1H-indazol-5-yl)amino)-5-(2-(dimethylamino)ethoxy)pyrimidin-2-yl)phenoxy)-N-isopropylacetamide TFA salt]
pIC50 [2]: 6.12
pIC50 [3, 10]: 7.60
intraocular inflammation [4]: less
macular perfusion [4]: less

pIC50 [2]: 5.86
pIC50 [3, 10]: 7.89
Structure (SMILES): CC(C)NC(=O)COc1cccc(-c2nc(Nc3ccc4[nH]ncc4c3)cc(N3CCCNCC3)n2)c1 [Example 121, 2-(3-(4-((1H-indazol-5-yl)amino)-6-(1,4-diazepan-1-yl)pyrimidin-2-yl)phenoxy)-N-isopropylacetamide]

pIC50 [2]: 5.96
pIC50 [3, 10]: 8.00
Structure (SMILES): O=C(Oc1cccc(-c2nccc(Nc3ccc4[nH]ncc4c3)n2)c1)N1CCOCC1 [Example 129, 3-(4-((1H-indazol-5-yl)amino)pyrimidin-2-yl)phenyl morpholine-4-carboxylate]

Structure (SMILES): CN(C)C(=O)Oc1cccc(-c2nccc(Nc3ccc4[nH]ncc4c3)n2)c1 [Example 131, 3-(4-((1H-indazol-5-yl)amino)pyrimidin-2-yl)phenyl dimethylcarbamate]
pIC50 [3]: 7.41

pIC50 [2]: 6.77
Structure (SMILES): c1cc(OCc2ccncc2)cc(-c2nccc(Nc3ccc4[nH]ncc4c3)n2)c1 [Example 136, N-(2-(3-(pyridin-4-ylmethoxy)phenyl)pyrimidin-4-yl)-1H-indazol-5-amine]

pIC50 [2]: 5.70
pIC50 [3, 10]: 8.10
Structure (SMILES): COCCOc1cccc(-c2nccc(Nc3ccc4[nH]ncc4c3)n2)c1 [Example 138, N-(2-(3-(2-methoxyethoxyl)phenyl)pyrimidin-4-yl)-1H-indazol-5-amine]

pIC50 [2]: 5.72
pIC50 [3, 10]: 7.26
Structure (SMILES): COc1cccc(-c2nccc(Nc3ccc4[nH]ncc4c3)n2)c1 [Example 140, N-(2-(3-methoxyphenyl)pyrimidin-4-yl)-1H-indazol-5-amine]

pIC50 [2]: 5.72
pIC50 [3, 10]: 7.24
Structure (SMILES): c1cc(OCCN2CCOCC2)cc(-c2nccc(Nc3ccc4[nH]ncc4c3)n2)c1 [Example 144, N-(2-(3-(2-morpholinoethoxyl)phenyl)pyrimidin-4-yl)-1H-indazol-5-amine]

pIC50 [2]: < 5.70
pIC50 [3, 10]: < 5.26
Structure (SMILES): CC(N)c1cccc(-c2nccc(Nc3ccc4[nH]ncc4c3)n2)c1 (centres unmarked) [Example 147, N-(2-(3-(1-aminoethyl)phenyl)pyrimidin-4-yl)-1H-indazol-5-amine]

Structure (SMILES): CC(C)NCCOc1cccc(-c2nccc(Nc3ccc4[nH]ncc4c3)n2)c1 [Example 154, N-(2-(3-(2-(isopropylamino)ethoxy)phenyl)pyrimidin-4-yl)-1H-indazol-5-amine]
bleeding (post operative rebleed) [5]: reduced
macular edema [5]: reduced

pIC50 [2]: < 5.00
pIC50 [3, 10]: < 5.00
Structure (SMILES): CC(C)NC(=O)COc1cccc(-c2nc(Nc3ccc4[nH]ncc4c3)cc(C(F)(F)F)n2)c1 [Example 169]

Structure (SMILES): CC(C)NC(=O)COc1cccc(-c2nc(Nc3ccc4[nH]ncc4c3)c3ccccc3n2)c1 [SLx-2119]
phosphorylation of STAT3 ([6]; T cells pre-treated, then stimulated with anti-CD3/CD28 antibodies): reduced
STAT3 phosphorylation ([6]; Th17-skewing conditions 5 days, then treated 3 hours): reduced
frequency of IFN-γ-producing cells [7, 11]: significantly reduced
frequency of IL-17-producing cells [7, 11]: significantly reduced
IFN-γ secretion [7, 12]: significantly down-regulated
IL-17 secretion [7, 12]: significantly down-regulated
IL-21 secretion [7, 12]: significantly down-regulated
IL-17 secretion ([8]; dose-dependent): significantly inhibited
IL-21 secretion ([8]; dose-dependent): significantly inhibited
inhibition of IFN-γ secretion ([8]; high dose 10 μM): less robust and significant only at high dose
ability of T cells to proliferate in response to TCR stimulation [9]: down-regulated
